PMC2677733 (International Journal of Biological Sciences, 2009)

Target: T1, OlatOR1/OlatOR2 (Ostrinia latipennis, UniProt C1PHB5)
T1 sequence (C1PHB5 1-424): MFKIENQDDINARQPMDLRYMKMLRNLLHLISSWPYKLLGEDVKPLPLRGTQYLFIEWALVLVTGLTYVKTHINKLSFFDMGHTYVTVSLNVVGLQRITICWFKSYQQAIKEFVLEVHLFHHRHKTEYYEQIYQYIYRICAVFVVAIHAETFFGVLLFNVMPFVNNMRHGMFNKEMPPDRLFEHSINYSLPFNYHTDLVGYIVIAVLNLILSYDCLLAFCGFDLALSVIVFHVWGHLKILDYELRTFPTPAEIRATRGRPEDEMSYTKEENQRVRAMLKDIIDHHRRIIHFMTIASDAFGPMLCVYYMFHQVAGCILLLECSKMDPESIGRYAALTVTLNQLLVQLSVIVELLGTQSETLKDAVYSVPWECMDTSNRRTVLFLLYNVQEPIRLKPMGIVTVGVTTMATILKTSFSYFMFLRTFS
T1 sequence (C1PHA8 1-473 partner): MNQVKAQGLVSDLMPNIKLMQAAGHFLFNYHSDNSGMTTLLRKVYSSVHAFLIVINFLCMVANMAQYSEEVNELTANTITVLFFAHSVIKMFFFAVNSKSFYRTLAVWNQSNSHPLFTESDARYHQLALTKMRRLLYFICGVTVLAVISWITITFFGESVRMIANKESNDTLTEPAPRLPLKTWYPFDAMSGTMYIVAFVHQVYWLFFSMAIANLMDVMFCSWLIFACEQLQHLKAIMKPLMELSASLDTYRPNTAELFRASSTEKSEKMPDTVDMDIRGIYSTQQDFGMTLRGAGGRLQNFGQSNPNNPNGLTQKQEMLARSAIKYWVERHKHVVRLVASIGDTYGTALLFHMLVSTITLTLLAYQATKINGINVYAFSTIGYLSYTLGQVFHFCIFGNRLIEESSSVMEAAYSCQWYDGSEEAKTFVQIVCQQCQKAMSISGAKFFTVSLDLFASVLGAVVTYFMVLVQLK
Test: two-electrode voltage clamp, Xenopus oocytes
Type: cell-based
Conditions: agonist, inward current; -80 mV; pH 7.6; 10 µM

Compound	two-electrode voltage clamp, Xenopus oocytes
CC/C=C/CCCCCCCCCCO [E11-14:OH, (E)-11-tetradecenol]	OscaOR1 and OlatOR1, strongly responded to E11-14:OH
CCCC/C=C\CCCCCCCCCCOC(C)=O [Z11-16:OAc]	OlatOR1/OlatOR2 cells were found to show exactly the same response pattern as OscaOR1/OscaOR2 cells
